The source of these data is patent US20250223281A1, “ANTIDIABETIC COMPOUNDS AND COMPOSITIONS” (REZUBIO PHARMACEUTICALS CO., LTD, priority 2022, published 2025).

The target of this assay is T1, GPR40 (Homo sapiens, UniProt O14842).
T1 construct: expressed in transfected cells; host or cells: HEK293 cells stably expressing GPR40 (Hygromycin selection)
Nature of the assay: IP1 accumulation assay in HEK293 cells stably expressing GPR40. It is filed as cell-based. Summed up:
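HEK293 cells stably expressing human GPR40 were incubated with compounds (10-point, 3-fold dilution series) for 2 h at 37 °C, then IP1 was detected by HTRF (665/615 nm ratio). Effect was normalised to DMSO blank and AMG-1638 as 100%, and EC50 was derived from dose curves.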

Setting [1] is: IP1 accumulation, HEK293 cells stably expressing GPR40, 2 hours at 37° C., % effect relative to AMG-1638, table of Biological Example 1.
[2] abbreviates: Tables A-1a to A-7b (structure-property relationship), obtained by methods of Biological Example 1.

T1 sequence (O14842 whole entry): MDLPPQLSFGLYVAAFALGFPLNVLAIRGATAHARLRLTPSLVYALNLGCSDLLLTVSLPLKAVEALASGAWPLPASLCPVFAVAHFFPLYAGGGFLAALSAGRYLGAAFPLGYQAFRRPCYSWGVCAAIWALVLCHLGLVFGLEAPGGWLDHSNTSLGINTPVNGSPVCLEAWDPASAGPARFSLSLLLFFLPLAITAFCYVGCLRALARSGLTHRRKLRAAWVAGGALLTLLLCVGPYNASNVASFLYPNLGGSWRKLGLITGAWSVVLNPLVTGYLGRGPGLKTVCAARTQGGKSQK

The term EC50 denotes the concentration giving half of the maximal effect. As to `COc1ccc(C(=O)N(CC(C)(C)CCn2cc(CCCCCCCCCCCCCCC(=O)NCCN(CCC(=O)NCCN)CCC(=O)NCCN)nn2)c2cccc(C)n2)c(N2CCC(COc3cc([C@@H](CC(=O)O)C4CC4)ccn3)CC2)c1` [Example 118], the EC50 amounted to 0.33 nM under setting [1] and 0.33 nM under setting [2].

Regarding `COc1ccc(F)c(-c2ccc(COc3cccc([C@@H](CC(=O)O)C4CC4)c3)cc2CC(C)(C)Cn2cc(CCCCCCCCC(=O)NCC[N+](C)(CCC(=O)NCCN)CCC(=O)NCCN)nn2)c1` [Example 144], the EC50 was 5170 nM under setting [1] and 5170 nM under setting [2].

Consider `COc1ccc(C(=O)N(CC(C)(C)CCCCCCn2cc(CCCCCCC(=O)NCCC[N+](C)(CC(=O)[O-])CC(=O)O)nn2)c2cccc(C)n2)c(N2CCC(COc3cc([C@@H](CC(=O)O)C4CC4)ccn3)CC2)c1` (stereo partly shown) [Example 212], for which it took 143 nM to reach a half-maximal effect under setting [1] (EC50).

As to `COc1ccc(F)c(-c2ccc(COc3cccc([C@@H](CC(=O)O)C4CC4)c3)cc2CC(C)(C)Cn2cc(CCCCCCCCCCC(=O)NCC[N+](C)(CCC(=O)NCCN)CCC(=O)NCCN)nn2)c1` [Example 59], the half-maximal effective concentration (EC50) was 1260 nM under setting [1] and 1260 nM under setting [2].

`COc1ccc(C(=O)N(CC(C)(C)CCn2cc(COCCOCCOCCOCC(=O)NCC[N+](C)(CCC(=O)NCCN)CCC(=O)NCCN)nn2)c2cccc(C)n2)c(N2CCC(COc3cc(C(CC(=O)O)C4CC4)ccn3)CC2)c1` (stereo not shown) [Example 163]: the EC50 is, setting by setting: under setting [1], greater than 5000 nM; (Table A-8 (additional examples), obtained by methods of Biological Example 1) greater than 5000 nM.

Molecule `COc1ccc(F)c(-c2ccc(COc3cccc([C@@H](CC(=O)O)C4CC4)c3)cc2CC(C)(C)Cn2cc(CCCCCCCCCC(=O)NCCCN(CC(=O)O)CC(=O)O)nn2)c1` [Example 104] showed an EC50 under setting [1] greater than 10000 nM.

Turning to `C[C@H](C(=O)O)[C@H](c1ccc2c(c1)O[C@@H](C1CCN(Cc3cc(-n4cc(CCCCCCCCCCCCCC(=O)NCCN(CCC(=O)NCCN)CCC(=O)NCCN)nn4)ccc3OC(F)(F)F)CC1)CC2)C1CC1` [Example 78], the EC50 by setting is: under setting [1], 1.4 nM; under setting [2], 1.4 nM.

Under setting [1], `COc1ccc(F)c(-c2ccc(COc3cccc([C@@H](CC(=O)O)C4CC4)c3)cc2C(OCCCCCn2cc(CCCCCCCCCCCCC(=O)NCC[N+](C)(CCC(=O)NCCN)CCC(=O)NCCN)nn2)C(C)(C)C)c1` (stereo partly shown) [Example 34] came in with an EC50 of 1.91 nM. In other words, the single-digit nanomolar range.

Under setting [1], `COc1ccc(F)c(-c2ccc(COc3cccc([C@@H](CC(=O)O)C4CC4)c3)cc2OC(C)(C)Cn2cc(CCCCCCCCCCCCCCC(=O)NCCN(CCC(=O)NCCN)CCC(=O)NCCN)nn2)c1` [Example 138] registered an EC50 of 6.87 nM.

In turn, `C[C@H](C(=O)O)[C@H](c1ccc2c(c1)O[C@@H](C1CCN(Cc3cc(-n4cc(CCCCCCCCCCCCCCCCCC(=O)NCCC[N+](C)(C)CC(=O)NCCN)nn4)ccc3OC(F)(F)F)CC1)CC2)C1CC1` [Example 146] returned an EC50 under setting [1] of 0.12 nM.

`COc1ccc(C(=O)N(CC(C)(C)CCn2cc(COCCOCCOCCOCCOCC(=O)NCC[N+](C)(CCC(=O)NCCN)CCC(=O)NCCN)nn2)c2cccc(C)n2)c(N2CCC(c3cc4ccc([C@@H](CC(=O)O)C5CC5)cc4o3)CC2)c1` [Example 178]: the EC50 under setting [1] amounted to 2030 nM.

For `COc1ccc(C(=O)N(CC(C)(C)CCn2cc(CCCCCCCCCCCCCCC(=O)NCCCN(CC(=O)O)CC(=O)O)nn2)c2cccc(C)n2)c(N2CCC(COc3cc([C@@H](CC(=O)O)C4CC4)ccn3)CC2)c1` [Example 130], the EC50 came to 1.25 nM under setting [1] and 1.25 nM under setting [2].

`COc1ccc(C(=O)N(CC(C)(C)CCCCCCn2cc(CCCCCCCCCCCCC(=O)NCCN(CC(=O)NCCN)CC(=O)NCCN)nn2)c2cccc(C)n2)c(N2CCC(COc3cc([C@@H](CC(=O)O)C4CC4)ccn3)CC2)c1` [Example 60] yielded an EC50 under setting [1] of 0.44 nM. In other words, the sub-nanomolar range.
